# Reference: patent US20070213303A1, “Methods for reducing platelet activation and for the treatment of thrombotic events” (priority 2005, published 2007)
# Experiments:
# Type in all cases: cell-based, human
# CD41a = assay: Flow cytometry, platelet surface expression of CD41a
# Method: (§1) Venous blood (8 ml) is collected in a plastic tube containing 2 ml of acid-citrate-dextrose (ACD) (7.3 g citric acid, 22.0 g sodium citrate.2H2O and 24.5 glucose in 1000 ml distilled water) and mixed well. The blood-ACD mixture is centrifuged at 1000 r.p.m. for 10 minutes at room temperature. The upper ⅔ of the platelet-rich plasma (PRP) is then collected and adjusted to pH=6.5 by adding ACD. The PRP is then centrifuged at 3000 r.p.m. for 10 minutes. The supernatant is removed and the platelet pellet is gently resuspended in 4 cc of the washing buffer (10 mM Tris/HCl, 0.15 M NaCl, 20 mM EDTA, pH=7.4). Platelets are washed in the washing buffer, and in TBS (10 mM Tris, 0.15 M NaCl, pH=7.4). All cells are then divided into the appropriate number of tubes. By way of example, if 9 different surface markers are evaluated, as described herein, then the cells should be divided into ten tubes, such that nine tubes containing washed platelets are incubated with 5 μl fluorescein isothiocyanate (FITC)-conjugated antibodies in the dark at +4° C. for 30 minutes, and one tube remains unstained and serves as a negative control. Surface antigen expression is measured with monoclonal murine anti-human antibodies, such as CD9 (p24); CD41a (IIb/IIIa, aIIbb3); CD42b (Ib); CD61(IIIa) (DAKO Corporation, Carpinteria, Calif.); CD49b (VLA-2, or a2b1); CD62p (P-selectin); CD31 (PECAM-1); CD 41b (IIb); and CD51/CD61 (vitronectin receptor, avb3) (PharMingen, San Diego Calif.), as the expression of these antigens on the cells is associated with platelet activation. After incubation, the cells are washed with TBS and resuspended in 0.25 ml of 1% paraformaldehyde. Samples are stored in the refrigerator at +4° C., and analyzed on a Becton Dickinson FACScan flow cytometer with laser output of 15 mw, excitation at 488 nm, and emission detection at 530±30 nm. The data can be collected and stored in list mode, and then analyzed using CELLQuest® software. FACS procedures are described in detail in, e.g., Gurbel, P. A. et al., J Amer Coll Cardiol 31: 1466-1473 (1998); Serebruany, V. L. et al., Am Heart J 136: 398-405 (1998); Gurbel, P. A. et al., Coron Artery Dis 9: 451-456 (1998) and Serebruany, V. L. et al., Arterioscl Thromb Vasc Biol 19: 153-158 (1999).
# (§2) Four cc of blood is collected in a tube, containing 2 cc of acid-citrate-dextrose (ACD; 7.3 g citric acid, 22.0 g sodium citrate.2H2O and 24.5 glucose in 1000 ml distilled water) and mixed well. The buffer, TBS (10 mM Tris, 0.15 M NaCl, pH 7.4) and the following fluorescein isothiocyanate (FITC) conjugated monoclonal antibodies (PharMingen, San Diego, Calif., USA, and DAKO, Calif., USA) are removed from a refrigerator and allowed to warm at room temperature (RT) prior to their use. The non-limiting examples of antibodies that can be used include CD41 (IIb/IIIa), CD31 (PECAM-1), CD62p (P-selectin), and CD51/61 (Vitronectin receptor). For each subject, six amber tubes (1.25 ml) are one Eppendorf tube (1.5 ml) are obtained and marked appropriately 450 μl of TBS buffer is pipetted to the labeled Eppendorf tube. A patient's whole blood tube is inverted gently twice to mix, and 50 μl of whole blood is pipetted to the appropriately labeled Eppendorf tube. The Eppendorf tube is capped and the diluted whole blood is mixed by inverting the Eppendorf tube gently two times, followed by pipetting 50 μl of diluted whole blood to each amber tube. […] The samples are analyzed on a Becton Dickinson FACScan flow cytometer. […]
# GP Ib (CD42b) = assay: Flow cytometry, platelet surface expression of CD42b
# Method: as §1, §2
# [1] = test system: vitronectin receptor (CD51/CD61); assay: Flow cytometry, platelet surface expression of CD51/61
# Method: as §1, §2
# P-selectin (CD62p) = assay: Flow cytometry, platelet surface expression of CD62p
# Method: as §1, §2
# LAMP-3 (CD63) = assay: Flow cytometry, platelet surface expression of CD63
# Method: as §1, §2
# LAMP-1 (CD107a) = assay: Flow cytometry, platelet surface expression of CD107a
# Method: as §1, §2
# [2] = test system: platelet-monocyte microparticles (CD14+CD151); assay: Flow cytometry, formation of platelet-monocyte microparticles
# Method: as §1, §2
# CD40-ligand (CD154) = assay: Flow cytometry, platelet surface expression of CD154
# Method: as §1, §2
# GP37 (CD165) = assay: Flow cytometry, platelet surface expression of CD165
# Method: as §1, §2
# PAR-1 (SPAN-12) = assay: Flow cytometry, PAR-1 thrombin receptor expression (SPAN-12)
# Method: as §1, §2
smiles,measurement,setting,value
CC(C)(Sc1cc(C(C)(C)C)c(O)c(C(C)(C)C)c1)Sc1cc(C(C)(C)C)c(OC(=O)CCC(=O)O)c(C(C)(C)C)c1 [Compound A],Flow cytometry CD41a,CD41a; preincubation 15 μg/mL,185.3 ± 21.3
same,Flow cytometry CD41a,CD41a; preincubation 30 μg/mL,170.3 ± 16.7
same,Flow cytometry CD41a,CD41a; preincubation 60 μg/mL,165.5 ± 16.7
same,Flow cytometry CD41a,CD41a; preincubation 90 μg/mL,160.9 ± 23.2
same,Surface platelet expression of GP IIb/IIIa (CD41a) antigen,CD41a; pretreated samples,decreased
same,Flow cytometry CD42b,GP Ib (CD42b); preincubation 15 μg/mL,151.6 ± 11.2
same,Flow cytometry CD42b,GP Ib (CD42b); preincubation 30 μg/mL,142.8 ± 11.4
same,Flow cytometry CD42b,GP Ib (CD42b); preincubation 60 μg/mL,137.7 ± 8.9
same,Flow cytometry CD42b,GP Ib (CD42b); preincubation 90 μg/mL,111.2 ± 11.2
same,Surface platelet expression of GP Ib (CD42b),GP Ib (CD42b); pretreated samples,decreased
same,vitronectin receptor (CD51/CD61),[1],little or no effect
same,Flow cytometry CD51/61,[1]; preincubation 15 μg/mL,10.9 ± 2.1
same,Flow cytometry CD51/61,[1]; preincubation 30 μg/mL,11.4 ± 1.6
same,Flow cytometry CD51/61,[1]; preincubation 60 μg/mL,11.8 ± 2.1
same,Flow cytometry CD51/61,[1]; preincubation 90 μg/mL,10.2 ± 1.7
same,P-selectin (CD62p),P-selectin (CD62p),little or no effect
same,Flow cytometry CD62p,P-selectin (CD62p); preincubation 15 μg/mL,9.8 ± 1.8
same,Flow cytometry CD62p,P-selectin (CD62p); preincubation 30 μg/mL,10.2 ± 1.9
same,Flow cytometry CD62p,P-selectin (CD62p); preincubation 60 μg/mL,10.5 ± 1.8
same,Flow cytometry CD62p,P-selectin (CD62p); preincubation 90 μg/mL,9.7 ± 1.8
same,LAMP-3 (CD63),LAMP-3 (CD63),little or no effect
same,Flow cytometry CD63,LAMP-3 (CD63); preincubation 15 μg/mL,7.0 ± 1.4
same,Flow cytometry CD63,LAMP-3 (CD63); preincubation 30 μg/mL,7.4 ± 1.4
same,Flow cytometry CD63,LAMP-3 (CD63); preincubation 60 μg/mL,6.8 ± 1.5
same,Flow cytometry CD63,LAMP-3 (CD63); preincubation 90 μg/mL,6.7 ± 1.4
same,LAMP-1 (CD107a),LAMP-1 (CD107a),little or no effect
same,Flow cytometry CD107a,LAMP-1 (CD107a); preincubation 15 μg/mL,6.7 ± 1.5
same,Flow cytometry CD107a,LAMP-1 (CD107a); preincubation 30 μg/mL,6.4 ± 1.4
same,Flow cytometry CD107a,LAMP-1 (CD107a); preincubation 60 μg/mL,6.1 ± 1.5
same,Flow cytometry CD107a,LAMP-1 (CD107a); preincubation 90 μg/mL,6.4 ± 1.6
same,Flow cytometry CD151 + 14,[2]; preincubation 15 μg/mL,131.4 ± 11.8
same,Flow cytometry CD151 + 14,[2]; preincubation 30 μg/mL,107.6 ± 15.4
same,Flow cytometry CD151 + 14,[2]; preincubation 60 μg/mL,98.7 ± 12.9
same,Flow cytometry CD151 + 14,[2]; preincubation 90 μg/mL,97.9 ± 10.8
same,Formation of platelet-monocyte microparticles (CD14+CD151),[2]; pretreated samples,reduced
same,CD40-ligand (CD154),CD40-ligand (CD154),little or no effect
same,Flow cytometry CD154,CD40-ligand (CD154); preincubation 15 μg/mL,6.6 ± 1.0
same,Flow cytometry CD154,CD40-ligand (CD154); preincubation 30 μg/mL,6.7 ± 0.9
same,Flow cytometry CD154,CD40-ligand (CD154); preincubation 60 μg/mL,6.8 ± 1.1
same,Flow cytometry CD154,CD40-ligand (CD154); preincubation 90 μg/mL,7.0 ± 1.1
same,GP37 (CD165),GP37 (CD165),little or no effect
same,Flow cytometry CD165,GP37 (CD165); preincubation 15 μg/mL,26.9 ± 2.7
same,Flow cytometry CD165,GP37 (CD165); preincubation 30 μg/mL,24.7 ± 2.7
same,Flow cytometry CD165,GP37 (CD165); preincubation 60 μg/mL,26.4 ± 3.7
same,Flow cytometry CD165,GP37 (CD165); preincubation 90 μg/mL,25.5 ± 3.2
same,Flow cytometry PAR-1 (SPAN-12),PAR-1 (SPAN-12); preincubation 15 μg/mL,25.0 ± 4.2
same,Flow cytometry PAR-1 (SPAN-12),PAR-1 (SPAN-12); preincubation 30 μg/mL,23.9 ± 3.8
same,Flow cytometry PAR-1 (SPAN-12),PAR-1 (SPAN-12); preincubation 60 μg/mL,24.4 ± 2.8
same,Flow cytometry PAR-1 (SPAN-12),PAR-1 (SPAN-12); preincubation 90 μg/mL,19.4 ± 3.5
same,"PAR-1 thrombin receptor expression, intact epitope",PAR-1 (SPAN-12); pretreated samples,reduced
